Drawing on the RepoRT retention time repository, this text covers LC retention time for 82 molecules.

A short description of the data set: RP, Waters ACQUITY Premier BEH C18, 100 × 2.1 mm, 1.7 µm, 40 °C, 0.3 to 0.4 mL/min, estimated dead time 0.73 min; A: water + 0.1% formic acid; B: acetonitrile + 0.1% formic acid; gradient (min/%B) 0/0.5 0.1/0.5 10/80 10.1/99.5 12/0.5 12.1/0.5 14.5/0.5. The note with it: stereoisomer not certain.
With `COc1ccc(O)c(C(=O)O)c1` [5-METHOXYSALICYLIC ACID], the LC retention time was 5.46 min.

As for `CC(CCC(=O)NCC(=O)O)C1CCC2C3CCC4CC(O)CCC4(C)C3CCC12C` (configuration not stated) [LITHOCHOLIC ACID GLYCINE CONJUGATE], the LC retention time is 7.62 min.

As to `O=C(O)CC(O)C(=O)O` (configuration not stated) [MALATE], the LC retention time is 1.11 min.

In the case of `Nc1ncnc2c1ncn2C1OC(CSCCC(N)C(=O)O)C(O)C1O` (configuration not stated) [S-ADENOSYLHOMOCYSTEINE], the LC retention time was 3.08 min.

In the case of `O=C(O)c1ccc(CO)o1` [SUMIKI'S ACID], the LC retention time is 3.65 min.

For `N[C@@H](Cc1ccc(O)c([N+](=O)[O-])c1)C(=O)O` [3-NITRO-L-TYROSINE], the LC retention time is 3.8 min.

For the molecule `Cn1c(=O)[nH]c2[nH]c(=O)[nH]c2c1=O` [1-METHYLURIC ACID], the LC retention time is 1.21 min.

As for `Cc1ccccc1C(=O)O` [2-METHYLBENZOIC ACID], the LC retention time is 5.38 min.

In the case of `CCCCCCCCCCCCCCCC(=O)NCCO` [PALMITOYLETHANOLAMIDE], the LC retention time is 8.84 min.

`CCCCCCCCCCCCCC(=O)OC(CC(=O)[O-])C[N+](C)(C)C` (configuration not stated) [TETRADECANOYLCARNITINE]: the LC retention time is 7.44 min.

With `O=c1[nH]c(=O)c2ncn(C3OC(COP(=O)(O)O)C(O)C3O)c2[nH]1` (configuration not stated) [XANTHOSINE-MONOPHOSPHATE], the LC retention time was 1.87 min.

For the molecule `O=C(O)CCCC(=O)C(=O)O` [OXOADIPATE], the LC retention time is 2.2 min.

For the molecule `O=C(CCc1ccc(O)cc1)c1c(O)cc(O)cc1OC1OC(CO)C(O)C(O)C1O` (configuration not stated) [PHLORIDZIN], the LC retention time is 5.01 min.

In the case of `O=c1cc(-c2ccccc2)oc2ccccc12` [FLAVONE], the LC retention time is 7.23 min.

`COc1c2ccoc2cc2oc(=O)ccc12` [BERGAPTEN]: the LC retention time is 6.74 min.

Take `CC1OC(n2cnc3c(N)ncnc32)C(O)C1O` (configuration not stated) [5'-DEOXYADENOSINE]: the LC retention time was 3.5 min.

As for `O=C1Cc2ccccc2N1` [1,3-DIHYDRO-(2H)-INDOL-2-ONE], the LC retention time was 5.06 min.

Regarding `CC(C)(CO)C(O)C(=O)NCCC(=O)O` (configuration not stated) [PANTOTHENATE], the LC retention time was 3.72 min.

`C[C@H](O)[C@@H](O)[C@H](O)[C@H](O)CO` [1-DEOXY-D-GLUCITOL]: the LC retention time is 0.959 min.

With `COc1ccc(-c2cc(=O)c3c(OC)c(OC)c(OC)c(OC)c3o2)cc1OC` [NOBILETIN], the LC retention time is 6.99 min.

Regarding `CC(=CC(=O)O)C(=O)O` [2-METHYLMALEATE], the LC retention time was 3.29 min.

Take `O=C(O)C(=O)c1ccccc1` [PHENYLGLYOXYLIC ACID]: the LC retention time is 5.53 min.

For the molecule `CC(CCC(=O)O)C1CCC2C3C(=O)CC4CC(O)CCC4(C)C3CC(O)C12C` (configuration not stated) [7-KETODEOXYCHOLATE], the LC retention time was 6.88 min.

Consider `CCCCC(N)C(=O)O` (configuration not stated) [NORLEUCINE], for which the LC retention time was 2.79 min.

For `Cc1cn(C2OC(CO)C(O)C2O)c(=O)[nH]c1=O` (configuration not stated) [RIBOTHYMIDINE], the LC retention time was 1.24 min.

For the molecule `O=C(O)CCC(=O)C(=O)O` [OXOGLUTARATE], the LC retention time was 1.3 min.

Regarding `Cc1cc2c(C(C)C)c(O)c(O)c(C=O)c2c(O)c1-c1c(C)cc2c(C(C)C)c(O)c(O)c(C=O)c2c1O` [(-)-GOSSYPOL], the LC retention time was 8.49 min.

As to `COC(=O)C1=CCCN(C)C1` [ARECOLINE], the LC retention time is 1.02 min.

Take `CC12CCC(=O)C=C1CCC1C2C(O)CC2(C)C(C(=O)CO)CCC12` (configuration not stated) [CORTICOSTERONE]: the LC retention time is 6.67 min.

On to `CCCCCCCCCCCCCC=CC(O)C(N)CO` (configuration not stated) [SPHINGOSINE], for which the LC retention time was 7.39 min.

In the case of `CCC(O)C(=O)O` (configuration not stated) [2-HYDROXYBUTYRATE], the LC retention time is 2.82 min.

As to `CC(=O)OC1CC2CCC1(C)C2(C)C` (single isomer, unassigned; (-)) [(-)-BORNYL ACETATE], the LC retention time is 7.47 min.

For the molecule `CCCCCC=CCC=CCCCCCCCC(=O)O` [LINOLEATE], the LC retention time is 7.75 min.

`CC(CCC(=O)O)C1CCC2C3CCC4CC(O)CCC4(C)C3CC(O)C12C` (configuration not stated) [DEOXYCHOLATE]: the LC retention time is 7.67 min.

As to `C=C1C(=O)OC2C=C(C)CCC=C(C)CCC12` (configuration not stated) [COSTUNOLIDE], the LC retention time is 7.65 min.

On to `COc1cc2ccc(=O)oc2cc1OC` [SCOPARONE], for which the LC retention time was 5.34 min.

On to `O=c1[nH]c(=O)c2ncn(C3OC(CO)C(O)C3O)c2[nH]1` (configuration not stated) [XANTHOSINE], for which the LC retention time was 3.45 min.

As to `O=C(O)C=Cc1cnc[nH]1` [UROCANATE], the LC retention time is 1.39 min.

Regarding `CC(=O)OCC(=O)C1(O)CCC2C3CCC4=CC(=O)CCC4(C)C3C(O)CC21C` (configuration not stated) [CORTISOL 21-ACETATE], the LC retention time was 6.92 min.

As for `CC(C)(C(=O)O)C(=O)O` [DIMETHYLMALONIC ACID], the LC retention time was 3.97 min.

As to `O=C(O)c1ccnc2ccccc12` [4-QUINOLINECARBOXYLATE], the LC retention time was 3.01 min.

For `O=c1c(-c2ccc(O)cc2)coc2cc(O)cc(O)c12` [GENISTEIN], the LC retention time was 6.07 min.

As to `O=C(C=Cc1ccc(O)c(O)c1)OC1CC(O)(C(=O)O)CC(O)C1OC(=O)C=Cc1ccc(O)c(O)c1` (configuration not stated) [4,5-DI-O-CAFFEOYLQUINIC ACID], the LC retention time was 4.78 min.

With `NCCc1cc(O)c(O)cc1O` [6-HYDROXYDOPAMINE], the LC retention time is 1.31 min.

On to `CCCCC(CC)COC(=O)c1ccccc1C(=O)OCC(CC)CCCC` (configuration not stated) [BIS(2-ETHYLHEXYL)PHTHALATE], for which the LC retention time was 10.7 min.

`CSCCC(NC(C)=O)C(=O)O` (configuration not stated) [N-ACETYLMETHIONINE]: the LC retention time was 4.21 min.

As for `CCCc1oc(CCC(=O)O)c(C(=O)O)c1C` [3-CARBOXY-4-METHYL-5-PROPYL-2-FURANPROPIONIC ACID], the LC retention time is 6.56 min.

As to `O=CCc1c[nH]c2ccccc12` [INDOLEACETALDEHYDE], the LC retention time was 6.28 min.

For `CC(=O)NC1C(O)CC(O)(C(=O)O)OC1C(O)C(O)CO` (configuration not stated) [N-ACETYLNEURAMINATE], the LC retention time is 0.9 min.

For `NCc1[nH]cc(CCC(=O)O)c1CC(=O)O` [PORPHOBILINOGEN], the LC retention time was 3.51 min.

For `NCCc1ccc(O)cc1` [TYRAMINE], the LC retention time is 2.81 min.

In the case of `C=CCSCC(N)C(=O)O` (configuration not stated) [S-ALLYLCYSTEINE], the LC retention time is 1.22 min.

For the molecule `CC(C)CC(=O)C(=O)O` [KETOLEUCINE], the LC retention time is 4.02 min.

With `CC(=O)C(C)O` (configuration not stated) [ACETOIN], the LC retention time was 3.5 min.

On to `O=c1cc[nH]c2c(O)cccc12` [QUINOLINE-4,8-DIOL], for which the LC retention time is 4.14 min.

On to `Nc1ccccc1O` [2-AMINOPHENOL], for which the LC retention time is 1.62 min.

Consider `O=c1ccn(C2CC(O)C(COP(=O)(O)O)O2)c(=O)[nH]1` (configuration not stated) [DEOXYURIDINE-MONOPHOSPHATE], for which the LC retention time is 1.7 min.

With `COc1ccc2[nH]cc(CCN)c2c1` [5-METHOXYTRYPTAMINE], the LC retention time is 3.73 min.

For the molecule `CCCOC(=O)c1ccc(O)cc1` [PROPYLPARABEN], the LC retention time was 6.78 min.

Regarding `NC(=O)NCCC(=O)O` [UREIDOPROPIONATE], the LC retention time is 1.27 min.

`CC1(C)OC2CC(=O)OCC23C1CC(=O)C1(C)C3CCC2(C)C(c3ccoc3)OC(=O)C3OC321` (configuration not stated) [LIMONIN]: the LC retention time is 6.87 min.

Take `O=C(O)CCc1ccc(O)c(O)c1` [3,4-DIHYDROXYHYDROCINNAMIC ACID]: the LC retention time is 4.42 min.

On to `O=c1[nH]c(=O)c2nccnc2[nH]1` [2,4-DIHYDROXYPTERIDINE], for which the LC retention time was 3.08 min.

As to `CC(=O)NC(CS)C(=O)O` (configuration not stated) [N-ACETYLCYSTEINE], the LC retention time was 4 min.

`Cn1c(=O)[nH]c2[nH]c(=O)n(C)c2c1=O` [1,7-DIMETHYLURIC ACID]: the LC retention time was 2.39 min.

In the case of `COc1cccc(OC)c1C(=O)O` [2,6-DIMETHOXYBENZOIC ACID], the LC retention time was 4.71 min.

With `NC(=O)c1ccc[n+](C2OC(COP(=O)(O)OP(=O)(O)OCC3OC(n4cnc5c(=O)[nH]cnc54)C(O)C3O)C(O)C2O)c1` (configuration not stated) [NICOTINAMIDE HYPOXANTHINE DINUCLEOTIDE], the LC retention time was 2.02 min.

Take `O=C(O)CCCCCC(=O)O` [6-CARBOXYHEXANOATE]: the LC retention time is 4.46 min.

For the molecule `O=C(O)c1cc(O)c2c(c1)C(=O)c1cccc(O)c1C2=O` [RHEIN], the LC retention time is 7.07 min.

As for `CC1C(=O)Nc2ccccc21` (configuration not stated) [3-METHYL-2-OXINDOLE], the LC retention time was 5.75 min.

Consider `O=C(C=CC=Cc1ccc2c(c1)OCO2)N1CCCCC1` [PIPERINE], for which the LC retention time was 7.22 min.

For `COc1cc(C=CC(=O)O)cc(OC)c1O` [SINAPIC ACID], the LC retention time is 4.58 min.

Take `O=C(O)c1ccccc1O` [SALICYLATE]: the LC retention time is 5.97 min.

Regarding `NC(CCCC(=O)O)C(=O)O` (configuration not stated) [AMINOADIPATE], the LC retention time was 0.943 min.

As for `OCC(Cc1cccc(O)c1)C(CO)Cc1cccc(O)c1` (configuration not stated) [ENTERODIOL], the LC retention time was 5.95 min.

For `Cc1ccc(O)c(O)c1` [4-METHYLCATECHOL], the LC retention time is 4.34 min.

On to `O=c1cc(-c2ccc(O)c(-c3c(O)cc(O)c4c(=O)cc(-c5ccc(O)cc5)oc34)c2)oc2cc(O)cc(O)c12` [AMENTOFLAVONE], for which the LC retention time was 6.35 min.

On to `COc1cc(CCC(=O)O)ccc1O` [DIHYDROFERULIC ACID], for which the LC retention time is 5.08 min.

As to `CC(CCC(=O)NCCS(=O)(=O)O)C1CCC2C3CCC4CC(O)CCC4(C)C3CCC12C` (configuration not stated) [LITHOCHOLYLTAURINE], the LC retention time was 7.55 min.

For `O=C(O)CNC(=O)c1ccc(O)cc1` [4-HYDROXYHIPPURIC ACID], the LC retention time was 2.42 min.

As to `CC(=O)Nc1ccc(OC2OC(C(=O)O)C(O)C(O)C2O)cc1` (configuration not stated) [4-ACETAMIDOPHENYLGLUCURONIDE], the LC retention time is 1.32 min.

With `CCC(C(=O)O)C(=O)O` [ETHYLMALONATE], the LC retention time is 3.85 min.
